# Reference: patent publication US9006295B2, “Process for bacterial stabilizing of aqueous ground natural calcium carbonate and/or precipitated calcium carbonate and/or dolomite and/or surface-reacted calcium carbonate-comprising mineral preparations” (Omya International AG, priority 2009, dated 2015)
# “Also recorded” adds a separate entry of the source.
# Assays:
# [1] = tested on: mixture of Pseudomonas species containing predominantly Pseudomonas putida and Pseudomonas stutzeri that are resistant to OPP; experiment: Biocidal activity in slurry, OPP-resistant bacteria; assay type: cell-based; conditions: GNCCS1 slurry
# Experimental: (§1) All quoted bacterial counts (Total Viable Count (TVC) values are in cfu/ml) in the Tables herebelow are determined after 5 days following plate-out and in accordance with counting method described in “Bestimmung von aeroben mesophilen Keimen”, Schweizerisches Lebensmittelbuch, chapter 56, section 7.01, edition of 1985, revised version of 1988.
# OPP, in the form of an aqueous solution having a concentration of 45%, and MEA were introduced into 50 g samples of each of the slurries indicated in Table 11 in the listed amounts (quoted in ppm active content based on the weight of the aqueous phase in the slurry). A reference was prepared according to the same protocol but in absence of MEA. References were prepared according to the same protocol but in absence of MEA and in absence of MEA and OPP.
# (§2) The slurry samples were then inoculated with 1 ml of a mixture of Pseudomonas species containing predominantly Pseudomonas putida and Pseudomonas stutzeri that are resistant to OPP. Each of the samples was incubated at 30° C. for 72 hours. Thereafter, a 1:10 dilution in phosphate buffered saline (PBS) was plated on plate count agar (PCA). These plates were incubated at 30° C. and analysed after 5 days.
# Test 59 below represents the same slurry as Test 58, but following a second inoculation of 1 ml of a mixture of Pseudomonas species. […]
# [2] = tested on: mixture of Pseudomonas species containing predominantly Pseudomonas putida and Pseudomonas stutzeri that are resistant to BM1; experiment: Biocidal activity in slurry, BM1-resistant bacteria; assay type: cell-based; conditions: GNCCS1 slurry
# Experimental: as §1
# (§3) BM1 and AMP were introduced into 50 g samples of each of the slurries indicated in Table 3 in the listed amounts (quoted in ppm based on the weight of the aqueous phase in the slurry). References were prepared according to the same protocol but in absence of AMP and in absence of AMP and BM1.
# as §2, with “BM1.” for “OPP.”
# Biocide mixture 1 (BM1) is an aqueous solution containing 24% by weight of GDA and 1.5% by weight of a combination of CIT and MIT (in a weight ratio CIT:MIT of 3:1), relative to the total solution weight. […]
# [3] = tested on: mixture of Pseudomonas species containing predominantly Pseudomonas putida and Pseudomonas stutzeri that are resistant to BM2; experiment: Biocidal activity in slurry, BM2-resistant bacteria; assay type: cell-based; conditions: GNCCS1 slurry
# Experimental: as §1
# as §3, with “BM2” for “BM1”, “5” for “3”, “slurry). A reference was prepared according to the same protocol but in absence of AMP.” for “slurry).”, “BM2.” for “BM1.”
# as §2, with “BM2.” for “OPP.”
# Biocide mixture 2 (BM2) is an aqueous solution containing 85% by weight of EGHF and 1.5% by weight of a combination of CIT and MIT (in a weight ratio CIT:MIT of 3:1), relative to the total solution weight. […]
# [4] = tested on: Pseudomonas aeruginosa; conditions: in combination with 500 ppm of triazine biocide; TSB-based plates; cited from earlier work
# [5] = tested on: mixture of Pseudomonas species containing predominantly Pseudomonas putida and Pseudomonas stutzeri; experiment: Biocidal activity in slurry (Total Viable Count after inoculation); assay type: cell-based; conditions: GNCCS1 slurry; Tables 1, 2 and 4
# Experimental: as §1
# as §3, with “Biocide mixture 1 (BM1) is an aqueous solution containing 24% by weight of GDA and 1.5% by weight of a combination of CIT and MIT (in a weight ratio CIT:MIT of 3:1), relative to the total solution weight. BM1 and” for “BM1 and”, “in Table 1 in the” for “in Table 3 in the”
# as §2, with “stutzeri.” for “stutzeri that are resistant to OPP.”, “days. […]” for “days.”
structure (smiles),measurement,setting,value
"NCCO [MEA, 2-aminoethanol]",biocide enhancement (in words),[1],enhances the biocide function of OPP
same,biocide enhancement (in words),[2],enhances the biocide function of BM1
same,biocide enhancement (in words),[3],enhances the biocide function of BM2
"CC(C)(N)CO [AMP, 2-amino-2-methyl-1-propanol]",amount of AMP needed to significantly influence the growth rate of the bacteria,[4],more than 4 000 ppm
same,biocide enhancement (in words),[5],enhances the biocide function of BM1; also recorded: enhances the biocide function of BM2
same,biocide enhancement (in words),[3],enhances the biocide function of BM2
